{"source": "paper PMC5218480", "about": "(PLoS ONE, 2017)", "system": "MV-4-11 cells", "assay": "Gene expression microarray analysis (Affymetrix PrimeView) and GSEA", "assay_type": "cell-based, human", "set-up": "RFU PODN (11730768_x_at) / Fold change /veh PODN (11730768_x_at) / RFU LINC00158 (11744669_a_at) / Fold change /veh LINC00158 (11744669_a_at) / RFU DUSP10 (11751237_a_at) / Fold change /veh DUSP10 (11751237_a_at) / RFU ID3 (11757404_x_at) / Fold change /veh ID3 (11757404_x_at) / RFU PLEKHG5 (11737974_s_at) / Fold change /veh PLEKHG5 (11737974_s_at) / RFU LRRC4B (11730491_at) / Fold change /veh LRRC4B (11730491_at) / RFU GIMAP4 (11747438_a_at) / Fold change /veh GIMAP4 (11747438_a_at) / RFU KRT8 (11758183_x_at) / Fold change /veh KRT8 (11758183_x_at) / RFU CNN1 (11734310_a_at) / Fold change /veh CNN1 (11734310_a_at) / RFU VPS37D (11726825_at) / Fold change /veh VPS37D (11726825_at) / RFU C10orf10 (11716522_x_at) / Fold change /veh C10orf10 (11716522_x_at) / RFU KIR2DL2 /// KIR2DL4 /// KIR2DL5A /// KIR2DL5B /// KIR2DS1 /// KIR2DS2 /// KIR2DS3 /// KIR2DS4 /// KIR3DL3 /// KIR3DL3 /// KIR3DS1 (11738374_at) / Fold change /veh KIR2DL2 /// KIR2DL4 /// KIR2DL5A /// KIR2DL5B /// KIR2DS1 /// KIR2DS2 /// KIR2DS3 /// KIR2DS4 /// KIR3DL3 /// KIR3DL3 /// KIR3DS1 (11738374_at) / RFU C1QL1 (11718748_at) / Fold change /veh C1QL1 (11718748_at) / RFU TMPRSS4 (11747572_a_at) / Fold change /veh TMPRSS4 (11747572_a_at) / RFU HAMP (11756126_x_at) / Fold change /veh HAMP (11756126_x_at) / RFU RNFT2 (11725882_a_at) / Fold change /veh RNFT2 (11725882_a_at) / RFU NR4A2 (11747474_a_at) / Fold change /veh NR4A2 (11747474_a_at) / RFU ABCC12 (11746883_a_at) / Fold change /veh ABCC12 (11746883_a_at) / RFU TMEM136 (11760407_x_at) / Fold change /veh TMEM136 (11760407_x_at) / RFU CLDN22 /// WWC2 (11732394_at) / Fold change /veh CLDN22 /// WWC2 (11732394_at) / RFU HLA-DPB1 (11760878_x_at) / Fold change /veh HLA-DPB1 (11760878_x_at) / RFU SPINT1 (11716480_a_at) / Fold change /veh SPINT1 (11716480_a_at) / RFU GAP43 (11754022_s_at) / Fold change /veh GAP43 (11754022_s_at) / RFU A4GNT (11735810_at) / Fold change /veh A4GNT (11735810_at) / RFU PRB3 (11715151_x_at) / Fold change /veh PRB3 (11715151_x_at) / RFU TUBB4B (11761932_at) / Fold change /veh TUBB4B (11761932_at) / RFU CAPN14 (11732068_a_at) / Fold change /veh CAPN14 (11732068_a_at) / RFU TMCC2 (11721928_a_at) / Fold change /veh TMCC2 (11721928_a_at) / RFU IRGQ (11745062_a_at) / Fold change /veh IRGQ (11745062_a_at) / RFU FAM174B (11720279_a_at) / Fold change /veh FAM174B (11720279_a_at) / RFU TMPRSS4 (11748680_a_at) / Fold change /veh TMPRSS4 (11748680_a_at) / RFU FAM212B (11763350_a_at) / Fold change /veh FAM212B (11763350_a_at) / RFU PLEKHG5 (11743358_a_at) / Fold change /veh PLEKHG5 (11743358_a_at) / RFU ZSCAN30 (11745921_a_at) / Fold change /veh ZSCAN30 (11745921_a_at) / RFU CMKLR1 (11741424_a_at) / Fold change /veh CMKLR1 (11741424_a_at) / RFU LOC101060620 /// MAPK8IP1 (11723275_at) / Fold change /veh LOC101060620 /// MAPK8IP1 (11723275_at) / RFU SPTSSB (11747773_x_at) / Fold change /veh SPTSSB (11747773_x_at) / RFU PRSS12 (11739890_at) / Fold change /veh PRSS12 (11739890_at) / RFU BIN1 (11741810_x_at) / Fold change /veh BIN1 (11741810_x_at) / RFU WNT11 (11732464_a_at) / Fold change /veh WNT11 (11732464_a_at) / RFU C10orf10 (11716521_a_at) / Fold change /veh C10orf10 (11716521_a_at) / RFU C5orf56 (11738089_at) / Fold change /veh C5orf56 (11738089_at) / RFU CYB561 (11721691_x_at) / Fold change /veh CYB561 (11721691_x_at) / RFU ANKRD19P (11752326_a_at) / Fold change /veh ANKRD19P (11752326_a_at) / RFU OR2T12 /// OR2T33 /// OR2T8 (11738714_s_at) / Fold change /veh OR2T12 /// OR2T33 /// OR2T8 (11738714_s_at) / RFU VCAN (11748164_a_at) / Fold change /veh VCAN (11748164_a_at) / RFU JSRP1 (11732532_at) / Fold change /veh JSRP1 (11732532_at) / RFU KRTAP10-11 (11738290_x_at) / Fold change /veh KRTAP10-11 (11738290_x_at) / RFU MYO3A (11730013_a_at) / Fold change /veh MYO3A (11730013_a_at) / RFU EBF3 (11725865_a_at) / Fold change /veh EBF3 (11725865_a_at) / RFU CAMK2N1 (11719241_x_at) / Fold change /veh CAMK2N1 (11719241_x_at) / RFU C5orf56 (11738088_a_at) / Fold change /veh C5orf56 (11738088_a_at) / RFU OLFML3 (11715873_a_at) / Fold change /veh OLFML3 (11715873_a_at) / RFU LOC100653217 /// NTM (11731650_a_at) / Fold change /veh LOC100653217 /// NTM (11731650_a_at) / RFU MAPK11 (11762145_a_at) / Fold change /veh MAPK11 (11762145_a_at) / RFU FIZ1 (11724087_x_at) / Fold change /veh FIZ1 (11724087_x_at) / RFU OASL (11726364_x_at) / Fold change /veh OASL (11726364_x_at) / RFU SOX15 (11748057_x_at) / Fold change /veh SOX15 (11748057_x_at) / RFU CD79A (11719716_a_at) / Fold change /veh CD79A (11719716_a_at) / RFU HIST1H1D (11736915_at) / Fold change /veh HIST1H1D (11736915_at) / RFU CASKIN2 (11723855_a_at) / Fold change /veh CASKIN2 (11723855_a_at) / RFU LOC730098 (11760151_x_at) / Fold change /veh LOC730098 (11760151_x_at) / RFU OR4N2 (11742367_at) / Fold change /veh OR4N2 (11742367_at) / RFU PRRT2 (11749266_a_at) / Fold change /veh PRRT2 (11749266_a_at) / RFU SNX32 (11753110_a_at) / Fold change /veh SNX32 (11753110_a_at) / RFU CDHR5 (11726645_a_at) / Fold change /veh CDHR5 (11726645_a_at) / RFU RCAN1 (11760418_a_at) / Fold change /veh RCAN1 (11760418_a_at) / RFU FAM167A (11723789_a_at) / Fold change /veh FAM167A (11723789_a_at) / RFU FAM26E (11764081_at) / Fold change /veh FAM26E (11764081_at) / RFU ISYNA1 (11749810_s_at) / Fold change /veh ISYNA1 (11749810_s_at) / RFU ACY1 (11761880_at) / Fold change /veh ACY1 (11761880_at) / RFU 11764098_at / Fold change /veh 11764098_at / RFU SAMD14 (11745864_x_at) / Fold change /veh SAMD14 (11745864_x_at) / RFU NPB (11741838_a_at) / Fold change /veh NPB (11741838_a_at) / RFU TMPRSS6 (11731388_a_at) / Fold change /veh TMPRSS6 (11731388_a_at) / RFU KRTAP10-2 (11738614_at) / Fold change /veh KRTAP10-2 (11738614_at) / RFU ARHGAP8 /// PRR5-ARHGAP8 (11727945_x_at) / Fold change /veh ARHGAP8 /// PRR5-ARHGAP8 (11727945_x_at) / RFU KRTAP5-7 /// NADSYN1 (11734609_at) / Fold change /veh KRTAP5-7 /// NADSYN1 (11734609_at) / RFU RASL12 (11751679_a_at) / Fold change /veh RASL12 (11751679_a_at) / RFU CDKN2B (11736163_a_at) / Fold change /veh CDKN2B (11736163_a_at) / RFU PRF1 (11729649_at) / Fold change /veh PRF1 (11729649_at) / RFU, ZNF638 /// ZNF638-IT1 / Fold change vs veh, ZNF638 /// ZNF638-IT1 / RFU, PANK3 / Fold change vs veh, PANK3 / RFU, SH3YL1 / Fold change vs veh, SH3YL1 / RFU, ZEB2 / Fold change vs veh, ZEB2 / RFU, NRIP1 / Fold change vs veh, NRIP1 / RFU, PTTG1IP / Fold change vs veh, PTTG1IP / RFU, CAPN2 / Fold change vs veh, CAPN2 / RFU, MED14 / Fold change vs veh, MED14 / RFU, SNORA58 / Fold change vs veh, SNORA58 / RFU, C1orf63 / Fold change vs veh, C1orf63 / RFU, LRRFIP1 / Fold change vs veh, LRRFIP1 / RFU, NDUFAF7 / Fold change vs veh, NDUFAF7 / RFU, SLC12A2 / Fold change vs veh, SLC12A2 / RFU, IBTK / Fold change vs veh, IBTK / RFU, ESF1 / Fold change vs veh, ESF1 / Fold change vs veh, TMEM50B / RFU, TAOK1 / Fold change vs veh, TAOK1 / RFU, ACBD3 / Fold change vs veh, ACBD3 / RFU, TMA16 / Fold change vs veh, TMA16 / RFU, RWDD3 / Fold change vs veh, RWDD3 / RFU, BCAT1 / Fold change vs veh, BCAT1 / RFU, EDEM3 / Fold change vs veh, EDEM3 / RFU, TMEM33 / Fold change vs veh, TMEM33 / RFU, WDR75 / Fold change vs veh, WDR75 / RFU, AHCTF1 / Fold change vs veh, AHCTF1 / RFU, TFRC / Fold change vs veh, TFRC / RFU, ZDHHC17 / Fold change vs veh, ZDHHC17 / RFU, NOM1 / Fold change vs veh, NOM1 / RFU, ARL8B / Fold change vs veh, ARL8B / RFU, ZBTB11 / Fold change vs veh, ZBTB11 / RFU, TAMM41 / Fold change vs veh, TAMM41 / RFU, KIAA1704 /// LOC100996395 / Fold change vs veh, KIAA1704 /// LOC100996395 / RFU, ING1 / Fold change vs veh, ING1 / RFU, TRMT61B / Fold change vs veh, TRMT61B / RFU, FUBP3 / Fold change vs veh, FUBP3 / RFU, TP53 / Fold change vs veh, TP53 / RFU, TNKS2 / Fold change vs veh, TNKS2 / RFU, ZFP14 / Fold change vs veh, ZFP14 / RFU, ACTR2 / Fold change vs veh, ACTR2 / RFU, PPP3R1 / Fold change vs veh, PPP3R1 / RFU, PIK3R1 / Fold change vs veh, PIK3R1 / RFU, HNRNPA1 / Fold change vs veh, HNRNPA1 / RFU, RNF170 / Fold change vs veh, RNF170 / RFU, ZNF28 / Fold change vs veh, ZNF28 / RFU, RNGTT / Fold change vs veh, RNGTT / RFU, OGT / Fold change vs veh, OGT / RFU, BRD1 / Fold change vs veh, BRD1 / RFU, MARS / Fold change vs veh, MARS / RFU, ZNF655 / Fold change vs veh, ZNF655 / RFU, FAHD1 / Fold change vs veh, FAHD1 / RFU, BDP1 / Fold change vs veh, BDP1 / RFU, LRRCC1 / Fold change vs veh, LRRCC1 / RFU, ARID1A / Fold change vs veh, ARID1A / RFU, ZNF146 / Fold change vs veh, ZNF146 / RFU, ZNF330 / Fold change vs veh, ZNF330 / RFU, GPN3 / Fold change vs veh, GPN3 / RFU, C9orf123 / Fold change vs veh, C9orf123 / RFU, N4BP2L2 / Fold change vs veh, N4BP2L2 / RFU, ARFIP1 / Fold change vs veh, ARFIP1 / RFU, FAM179B / Fold change vs veh, FAM179B / RFU, BCL10 / Fold change vs veh, BCL10 / RFU, UHRF1BP1L / Fold change vs veh, UHRF1BP1L / RFU, BET1 / Fold change vs veh, BET1 / RFU, CNOT2 / Fold change vs veh, CNOT2 / RFU, ZNF268 / Fold change vs veh, ZNF268 / Fold change vs veh, ZNF507 / RFU, DGCR2 / Fold change vs veh, DGCR2 / RFU, WDSUB1 / Fold change vs veh, WDSUB1 / Fold change vs veh, HSP90B1 /// MIR3652 / RFU, ADSS / Fold change vs veh, ADSS / RFU, GK / Fold change vs veh, GK / RFU, ZNF148 / Fold change vs veh, ZNF148 / RFU, TAF9 / Fold change vs veh, TAF9 / RFU, SLC1A5 / Fold change vs veh, SLC1A5 / RFU, SLMO2 / Fold change vs veh, SLMO2 / RFU, ABCC4 / Fold change vs veh, ABCC4 / RFU, LOC101060439 /// RAP1B / Fold change vs veh, LOC101060439 /// RAP1B / RFU, RFX7 / Fold change vs veh, RFX7 / RFU, GTPBP10 / Fold change vs veh, GTPBP10 / RFU, CNEP1R1 / Fold change vs veh, CNEP1R1 / RFU, BIVM-ERCC5 /// ERCC5 / Fold change vs veh, BIVM-ERCC5 /// ERCC5 / RFU, ILF3 / Fold change vs veh, ILF3 / RFU 11762660_at / Fold change /veh 11762660_at / RFU VCAN (11757783_s_at) / Fold change /veh VCAN (11757783_s_at) / RFU DDX43 (11728927_at) / Fold change /veh DDX43 (11728927_at) / RFU KRT8 (11758188_x_at) / Fold change /veh KRT8 (11758188_x_at) / RFU NKD1 (11759106_at) / Fold change /veh NKD1 (11759106_at) / RFU SRD5A1 (11742802_a_at) / Fold change /veh SRD5A1 (11742802_a_at) / RFU TPSAB1 /// TPSB2 (11721975_s_at) / Fold change /veh TPSAB1 /// TPSB2 (11721975_s_at) / RFU GSTM3 (11746129_a_at) / Fold change /veh GSTM3 (11746129_a_at) / RFU IL23R (11737362_x_at) / Fold change /veh IL23R (11737362_x_at) / RFU TMEM51 (11727254_a_at) / Fold change /veh TMEM51 (11727254_a_at) / RFU PIWIL2 (11732686_x_at) / Fold change /veh PIWIL2 (11732686_x_at) / RFU ORM1 (11744905_x_at) / Fold change /veh ORM1 (11744905_x_at) / RFU CCDC152 (11743942_at) / Fold change /veh CCDC152 (11743942_at) / RFU ECM1 (11717891_a_at) / Fold change /veh ECM1 (11717891_a_at) / RFU IL23R (11748794_a_at) / Fold change /veh IL23R (11748794_a_at) / RFU TNFAIP8L3 (11732012_x_at) / Fold change /veh TNFAIP8L3 (11732012_x_at) / RFU MBOAT4 (11741988_at) / Fold change /veh MBOAT4 (11741988_at) / RFU 11764193_at / Fold change /veh 11764193_at / RFU TMEM53 (11763286_at) / Fold change /veh TMEM53 (11763286_at) / RFU MAGEB2 (11727129_at) / Fold change /veh MAGEB2 (11727129_at) / RFU TMEM200A (11744735_a_at) / Fold change /veh TMEM200A (11744735_a_at) / RFU CCDC152 (11751479_a_at) / Fold change /veh CCDC152 (11751479_a_at) / RFU FAM211A (11726209_a_at) / Fold change /veh FAM211A (11726209_a_at) / RFU RGS16 (11746705_a_at) / Fold change /veh RGS16 (11746705_a_at) / RFU VCAN (11755009_s_at) / Fold change /veh VCAN (11755009_s_at) / RFU RHOB (11743442_s_at) / Fold change /veh RHOB (11743442_s_at) / RFU RGS16 (11720943_a_at) / Fold change /veh RGS16 (11720943_a_at) / RFU RGS16 (11720944_at) / Fold change /veh RGS16 (11720944_at) / RFU, VPS4B / Fold change vs veh, VPS4B / RFU, CREB1 / Fold change vs veh, CREB1 / RFU, DNAJC13 / Fold change vs veh, DNAJC13 / RFU, GNAQ / Fold change vs veh, GNAQ / RFU, CDK5R1 / Fold change vs veh, CDK5R1 / RFU, ZRANB3 / Fold change vs veh, ZRANB3 / RFU, CUL4A / Fold change vs veh, CUL4A / RFU, CCNY / Fold change vs veh, CCNY / RFU, UFL1 / Fold change vs veh, UFL1 / RFU, COG3 / Fold change vs veh, COG3 / RFU, DIAPH2 / Fold change vs veh, DIAPH2 / RFU, SKA2 / Fold change vs veh, SKA2 / RFU, AFF3 / Fold change vs veh, AFF3 / RFU, LMF1 / Fold change vs veh, LMF1 / RFU, IPO11 / Fold change vs veh, IPO11 / RFU, DFFB / Fold change vs veh, DFFB / RFU, FOXP1 / Fold change vs veh, FOXP1 / RFU, CARD8 / Fold change vs veh, CARD8 / RFU, STRN3 / Fold change vs veh, STRN3 / RFU, ADK / Fold change vs veh, ADK / RFU, RASSF2 / Fold change vs veh, RASSF2 / RFU, WIPF1 / Fold change vs veh, WIPF1 / RFU, LARP1B / Fold change vs veh, LARP1B / RFU, RASA1 / Fold change vs veh, RASA1 / RFU, RB1 / Fold change vs veh, RB1 / RFU, PPFIA1 / Fold change vs veh, PPFIA1 / RFU, MAT2A / Fold change vs veh, MAT2A / RFU, CCT5 / Fold change vs veh, CCT5 / RFU, WDR92 / Fold change vs veh, WDR92 / RFU, CUX1 / Fold change vs veh, CUX1 / RFU, TTC7A / Fold change vs veh, TTC7A / RFU, TMEM135 / Fold change vs veh, TMEM135 / RFU, DEPTOR / Fold change vs veh, DEPTOR / RFU, CPM / Fold change vs veh, CPM / RFU, DNAJB6 / Fold change vs veh, DNAJB6 / RFU, CACNA2D3 / Fold change vs veh, CACNA2D3 / RFU, DTX4 / Fold change vs veh, DTX4 / RFU, TFCP2 / Fold change vs veh, TFCP2 / RFU, GMCL1 /// GMCL1P1 / Fold change vs veh, GMCL1 /// GMCL1P1 / RFU, AEBP2 / Fold change vs veh, AEBP2 / RFU, SNHG1 /// SNORD22 /// SNORD25 /// SNORD26 /// SNORD27 /// SNORD28 /// SNORD29 /// SNORD31 / Fold change vs veh, SNHG1 /// SNORD22 /// SNORD25 /// SNORD26 /// SNORD27 /// SNORD28 /// SNORD29 /// SNORD31 / Fold change (Aza/veh), C12orf56 (ProbeSet 11735607_a_at) / Fold change (ACY-1035/veh), C12orf56 (ProbeSet 11735607_a_at) / Fold change (Aza/veh), FGFR1OP (ProbeSet 11751329_s_at) / Fold change (ACY-1035/veh), FGFR1OP (ProbeSet 11751329_s_at) / Fold change (Aza/veh), VPS36 (ProbeSet 11739960_a_at) / Fold change (ACY-1035/veh), VPS36 (ProbeSet 11739960_a_at) / RFU SYPL1 (11715823_x_at) / Fold change /veh SYPL1 (11715823_x_at) / RFU IGFBP7 (11715501_s_at) / Fold change /veh IGFBP7 (11715501_s_at) / RFU REEP3 (11722064_at) / Fold change /veh REEP3 (11722064_at) / RFU IGLL1 (11728026_x_at) / Fold change /veh IGLL1 (11728026_x_at): dose or concentration left out as unconfirmed", "settings": "ProbeSet 11754607_s_at; LIST B"}
{"molecule": "Nc1ccc(-c2cccs2)cc1NC(=O)c1ccc2c(c1)cc(C1CC1)n2CCN1CCOCC1", "note": "[ACY-1035]", "values": [{"measurement": "Fold change vs veh, HSP90B1 /// MIR3652", "result": 0.87}]}
